Assay results from US10385057B2, “Pyrazole compounds and methods of making and using same” (Lundbeck La Jolla Research Center, Inc., priority 2015, dated 2019).

Tests used:
FAAH = molecular target: T1, FAAH (Mus musculus, UniProt O08914); assay: In vitro competitive activity-based protein profiling, mouse FAAH; assay type: biochemical; settings: for inhibition at 1 µM: read-out: FAAH % inh. 1 μM (mouse)
T1 construct: mouse brain membrane fraction or cell lysates for mouse assays; from tissue
T1 sequence (O08914 1-579): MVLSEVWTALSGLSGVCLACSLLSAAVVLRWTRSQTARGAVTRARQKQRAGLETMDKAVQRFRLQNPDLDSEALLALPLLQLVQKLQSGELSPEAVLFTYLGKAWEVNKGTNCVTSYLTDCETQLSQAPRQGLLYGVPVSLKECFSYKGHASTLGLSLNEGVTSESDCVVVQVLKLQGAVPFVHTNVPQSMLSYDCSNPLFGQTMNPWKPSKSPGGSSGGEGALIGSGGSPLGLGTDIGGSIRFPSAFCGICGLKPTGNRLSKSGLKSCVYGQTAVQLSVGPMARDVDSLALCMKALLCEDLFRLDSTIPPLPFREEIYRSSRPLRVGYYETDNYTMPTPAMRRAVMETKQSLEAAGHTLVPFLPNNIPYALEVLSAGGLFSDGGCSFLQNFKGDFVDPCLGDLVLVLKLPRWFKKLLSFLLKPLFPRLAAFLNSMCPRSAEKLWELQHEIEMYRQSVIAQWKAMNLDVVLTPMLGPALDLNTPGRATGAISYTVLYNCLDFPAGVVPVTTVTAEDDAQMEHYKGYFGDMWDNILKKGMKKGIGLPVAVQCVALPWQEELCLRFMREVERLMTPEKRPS
Summary of the method: (§1)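 Activity measured as fluorescent gel-band intensity of MAGL and FAAH after SDS-PAGE. Before labelling with FP-Rh or HT-01 (30 min, 37 °C), proteomes at 1.0 mg/mL (mouse brain membrane or lysates; human prefrontal cortex or cell membranes) were exposed to varying inhibitor concentrations for 30 min at 37 °C.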

MAGL = molecular target: T2, MAGL (Mus musculus, UniProt O35678); assay: In vitro competitive activity-based protein profiling, mouse MAGL; assay type: biochemical; settings: for inhibition at 1 µM: read-out: MAGL % inh. 1 μM (mouse)
T2 construct: mouse brain membrane fraction or cell lysates for mouse assays; from tissue
T2 sequence (O35678 1-303): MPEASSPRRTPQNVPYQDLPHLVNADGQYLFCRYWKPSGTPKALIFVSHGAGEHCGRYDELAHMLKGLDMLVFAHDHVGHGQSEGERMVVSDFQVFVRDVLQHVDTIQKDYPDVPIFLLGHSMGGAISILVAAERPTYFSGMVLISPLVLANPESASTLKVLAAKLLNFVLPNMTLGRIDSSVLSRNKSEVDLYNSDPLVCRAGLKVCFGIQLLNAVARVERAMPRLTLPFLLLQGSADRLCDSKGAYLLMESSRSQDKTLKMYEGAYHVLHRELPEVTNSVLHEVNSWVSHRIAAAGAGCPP
Summary of the method: as §1

Structure (SMILES)	inhibition at 1 µM (FAAH) [%]	inhibition at 1 µM (MAGL; 1 μM) [%]	inhibition at 10 µM (FAAH; 10 μM, read-out: FAAH % inh. at 10 μM (mouse)) [%]	inhibition at 10 µM (MAGL; 10 μM, read-out: MAGL % inh. at 10 μM (mouse)) [%]	IC50 (FAAH) [nM]	IC50 (MAGL) [nM]	MAGL % inh. 1 μM (mouse) (MAGL; 1 μM)
CNC(=O)c1cnn(C(=O)N2CC3CN(Cc4ccc(N5CCOCC5)cc4C(F)(F)F)CC3C2)c1 (centres unmarked) [Example 27, N-methyl-1-(5-(4-morpholino-2-(trifluoromethyl)benzyl)octahydropyrrolo[3,4-c]pyrrole-2-carbonyl)-1H-pyrazole-4-carboxamide]	≥ 75	≥ 75					
CN(Cc1ccc(Oc2ccccc2)cc1)[C@H]1C[C@@H]2CN(C(=O)n3cc(Cl)cn3)C[C@@H]2C1 [Example 159, (4-chloro-1H-pyrazol-1-yl)(trans-5-(methyl(4-phenoxybenzyl)amino)hexahydrocyclopenta[c]pyrrol-2(1H)-yl)methanone]	≥ 75	≥ 75					
O=C(N1CCC2(CCN(Cc3cccc(Cl)c3)C2)C1)n1cc(Cl)cn1 (single isomer, unassigned) [Example 133, (4-chloro-1H-pyrazole-1-carbonyl)-7-[(3-chlorophenyl)methyl]-2,7-diazaspiro[4.4]nonane]					≤ 100	100 to 1000	
CC(=O)N(Cc1ccc(Cl)cc1)[C@H]1C[C@@H]2CN(C(=O)n3cc(Cl)cn3)C[C@@H]2C1 [Example 70, N-(trans-2-(4-chloro-1H-pyrazole-1-carbonyl)octahydrocyclopenta[c]pyrrol-5-yl)-N-(4-chlorobenzyl)acetamide]	50 to 75	≥ 75					
O=C(N1CCC2(CCN(Cc3cccc(F)c3)C2)C1)n1cc(C(F)(F)F)cn1 (centres unmarked) [Example 169, (7-(3-fluorobenzyl)-2,7-diazaspiro[4.4]nonan-2-yl)(4-(trifluoromethyl)-1H-pyrazol-1-yl)methanone]	≥ 75	≥ 75			≤ 100	100 to 1000	
CN(Cc1ccc(Cl)cc1)[C@H]1C[C@@H]2CN(C(=O)n3cc(Cl)cn3)C[C@@H]2C1 [Example 68, (4-chloro-1H-pyrazol-1-yl)(trans-5-((4-chlorobenzyl)(methyl)amino)hexahydrocyclopenta[c]pyrrol-2(1H)-yl)methanone]	≥ 75	≥ 75					
CN(Cc1ccc(-c2cnccn2)cc1C(F)(F)F)[C@H]1C[C@@H]2CN(C(=O)n3cc(C(N)=O)cn3)C[C@@H]2C1 [Example 223, 1-(trans-5-(methyl(4-(pyrazin-2-yl)-2-(trifluoromethyl)benzyl)amino)octahydrocyclopenta[c]pyrrole-2-carbonyl)-1H-pyrazole-4-carboxamide]	≥ 75	≥ 75					
NC(=O)c1cnn(C(=O)N2CCC3(CCN(Cc4cc(N5CCOCC5)ccc4C(F)(F)F)C3)C2)c1 (centres unmarked) [Example 212, 1-(7-(5-morpholino-2-(trifluoromethyl)benzyl)-2,7-diazaspiro[4.4]nonane-2-carbonyl)-1H-pyrazole-4-carboxamide]	≥ 75	≥ 75					
NC(=O)c1cnn(C(=O)N2CCC3(CCN(Cc4ccc(Cl)cc4)C3)C2)c1 (centres unmarked) [Example 37, 1-(7-(4-chlorobenzyl)-2,7-diazaspiro[4.4]nonane-2-carbonyl)-1H-pyrazole-4-carboxamide]	≥ 75	50 to 75			≤ 100	1000 to 10000	
O=C(N1CCC2(CCN(Cc3ccc(F)cc3)C2)C1)n1cc(C(F)(F)F)cn1 (centres unmarked) [Example 166, (7-(4-fluorobenzyl)-2,7-diazaspiro[4.4]nonan-2-yl)(4-(trifluoromethyl)-1H-pyrazol-1-yl)methanone]	≥ 75	≥ 75			100 to 1000	100 to 1000	
O=C(c1cnn(C(=O)N2CCC3(CCN(Cc4cccc(C(F)(F)F)c4)C3)C2)c1)N1CCCC1 (centres unmarked) [Example 31, pyrrolidin-1-yl(1-(7-(3-(trifluoromethyl)benzyl)-2,7-diazaspiro[4.4]nonane-2-carbonyl)-1H-pyrazol-4-yl)methanone]	≥ 75	25 to 50					

The next lines start with results.

inhibition at 1 µM (FAAH) [%]	inhibition at 1 µM (MAGL; 1 μM) [%]	inhibition at 10 µM (FAAH; 10 μM, read-out: FAAH % inh. at 10 μM (mouse)) [%]	inhibition at 10 µM (MAGL; 10 μM, read-out: MAGL % inh. at 10 μM (mouse)) [%]	IC50 (FAAH) [nM]	IC50 (MAGL) [nM]	Structure (SMILES)	MAGL % inh. 1 μM (mouse) (MAGL; 1 μM)
≥ 75	≥ 75					NC(=O)c1cnn(C(=O)N2CCC3(CCN(Cc4cc(N5CCCC5)cc(C(F)(F)F)c4)C3)C2)c1 (centres unmarked) [Example 211, 1-(7-(3-(pyrrolidin-1-yl)-5-(trifluoromethyl)benzyl)-2,7-diazaspiro[4.4]nonane-2-carbonyl)-1H-pyrazole-4-carboxamide]	
≥ 75	0 to 25	100	100			CNC(=O)c1cnn(C(=O)N2CCC3(CCN(Cc4cccc(C(F)(F)F)c4)C3)C2)c1 (centres unmarked) [Example 42, N-methyl-1-(7-(3-(trifluoromethyl)benzyl)-2,7-diazaspiro[4.4]nonane-2-carbonyl)-1H-pyrazole-4-carboxamide]	
≥ 75	≥ 75			≤ 100	≤ 100	Cc1cc(-c2ccccc2)ccc1CN1CC2CN(C(=O)n3cc(Cl)cn3)CC2C1 (centres unmarked) [Example 121, (4-chloro-1H-pyrazol-1-yl)(5-((3-methyl-[1,1′-biphenyl]-4-yl)methyl)hexahydropyrrolo[3,4-c]pyrrol-2(1H)-yl)methanone]	
≥ 75	≥ 75			≤ 100	100 to 1000	NC(=O)c1cnn(C(=O)N2CC3CN(Cc4ccc(Cl)cc4)CC3C2)c1 (centres unmarked) [Example 16, 1-(5-(4-chlorobenzyl)octahydropyrrolo[3,4-c]pyrrole-2-carbonyl)-1H-pyrazole-4-carboxamide]	
≥ 75						CN(Cc1ccccc1Cl)[C@@H]1C[C@@H]2CN(C(=O)n3cc(C(=O)N4CCCC4)cn3)C[C@@H]2C1 [Example 89, (cis-5-((2-chlorobenzyl)(methyl)amino)hexahydrocyclopenta[c]pyrrol-2(1H)-yl)(4-(pyrrolidine-1-carbonyl)-1H-pyrazol-1-yl)methanone]	C (% inhibition greater than or equal to 25% and less than 50%)
≥ 75	≥ 75			≤ 100	≤ 100	COc1cccc(CN2CC3CN(C(=O)n4cc(C(F)(F)F)cn4)CC3C2)c1 (centres unmarked) [Example 142, (5-(3-methoxybenzyl)hexahydropyrrolo[3,4-c]pyrrol-2(1H)-yl)(4-(trifluoromethyl)-1H-pyrazol-1-yl)methanone]	
≥ 75	≥ 75					O=C(c1cnn(C(=O)N2CC3CN(Cc4cc(Cl)cc(C(F)(F)F)c4)CC3C2)c1)N1CCCC1 (centres unmarked) [Example 9, (5-(3-chloro-5-(trifluoromethyl)benzyl)hexahydropyrrolo[3,4-c]pyrrol-2(1H)-yl)(4-(pyrrolidine-1-carbonyl)-1H-pyrazol-1-yl)methanone]	
≥ 75	≥ 75			≤ 100	≤ 100	COc1ccccc1CN1CC2CN(C(=O)n3cc(C(F)(F)F)cn3)CC2C1 (centres unmarked) [Example 154, (5-(2-methoxybenzyl)hexahydropyrrolo[3,4-c]pyrrol-2(1H)-yl)(4-(trifluoromethyl)-1H-pyrazol-1-yl)methanone]	
≥ 75	≥ 75					NC(=O)c1cnn(C(=O)N2CCC3(CCN(Cc4ccc(N5CCOCC5)c(C(F)(F)F)c4)C3)C2)c1 (centres unmarked) [Example 206, 1-(7-(4-morpholino-3-(trifluoromethyl)benzyl)-2,7-diazaspiro[4.4]nonane-2-carbonyl)-1H-pyrazole-4-carboxamide]	
≥ 75	≥ 75			≤ 100	≤ 100	CN(Cc1ccc(C(F)(F)F)cc1)[C@@H]1C[C@@H]2CN(C(=O)n3cc(Cl)cn3)C[C@@H]2C1 [Example 76, (4-chloro-1H-pyrazol-1-yl)(cis-5-(methyl(4-(trifluoromethyl)benzyl)amino)hexahydrocyclopenta[c]pyrrol-2(1H)-yl)methanone]	
≥ 75	≥ 75					CN(Cc1cc(Cl)ccc1C(F)(F)F)[C@H]1C[C@@H]2CN(C(=O)n3cc(C(N)=O)cn3)C[C@@H]2C1 [Example 215, 1-(trans-5-((5-chloro-2-(trifluoromethyl)benzyl)(methyl)amino)octahydrocyclopenta[c]pyrrole-2-carbonyl)-1H-pyrazole-4-carboxamide]	
